# Source: US20210369680A1, “METHODS OF TREATING DISEASES AND DISORDERS RESULTING FROM BETA CORONAVIRUS INFECTION” (T3D Therapeutics, Inc., priority 2020, published 2021)
# Where “and” joins values, the source holds several entries; their conditions need not be identical. Equal values may be shown once.
# How the values were obtained:
# human PPARδ = biological target: T1, human PPARδ (Homo sapiens, UniProt Q03181); test: Human PPAR activation, transient transfection study in transfected CV-1 cells; type: cell-based
# T1 construct: expressed in transfected cells; host or cells: CV-1 cells
# T1 sequence (Q03181 1-441): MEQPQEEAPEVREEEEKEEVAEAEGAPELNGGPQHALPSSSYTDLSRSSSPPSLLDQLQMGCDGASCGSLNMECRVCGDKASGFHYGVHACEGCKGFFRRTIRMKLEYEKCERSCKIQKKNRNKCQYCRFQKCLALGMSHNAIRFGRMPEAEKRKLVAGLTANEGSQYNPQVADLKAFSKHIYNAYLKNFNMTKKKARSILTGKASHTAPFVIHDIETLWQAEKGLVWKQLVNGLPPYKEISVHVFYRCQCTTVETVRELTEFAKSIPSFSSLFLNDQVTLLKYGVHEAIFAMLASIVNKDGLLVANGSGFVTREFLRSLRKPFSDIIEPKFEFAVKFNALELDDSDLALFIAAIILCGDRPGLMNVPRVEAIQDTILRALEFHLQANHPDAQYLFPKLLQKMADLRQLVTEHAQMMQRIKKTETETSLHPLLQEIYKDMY
# [1] = Rat brain penetrance pharmacokinetics after oral dosing; type: in vivo, male Sprague-Dawley rats; conditions: for B/P Ratio / Brain Tissue Cone. / Plasma Conc.: individual rats; for Average (B/P Ratio): mean of 3 rats
# Source text: Determination of Brain to Plasma Ratios for Compound of Example 11
# For compounds of the present disclosure to be effective in treating cognitive impairment, it must have an ability to cross the BBB and penetrate the brain. […] The plasma exposure as measured by AUClast was 9569±1190 hr*ng/mL.
structure (smiles),measurement,setting,value
"CCc1oc(-c2ccc(OC)cc2)nc1CCOc1ccc2c(c1)CC[C@H]2CC(=O)[O-].[Na+] [Example 11, Sodium (S)-2-(5-(2-(5-ethyl-2-(4-methoxyphenyl)oxazol-4-yl)ethoxy)-2,3-dihydro-1H-inden-1-yl)acetate]",Peak effect PPARδ,human PPARδ,17.68
same,greater potency in activating human PPARδ over human PPARγ,human PPARδ,15 fold
same,selectivity over the human PPAR alpha subtype,human PPARδ,~30 fold
same,Emax,"human PPARδ; CV-1, read-out: Average % maximal response PPARδ",76%
same,Brain/Plasma ratio,"[1]; 1 hour, rat, oral 3 mg/kg",0.361±0.142
same,B/P Ratio,[1]; 1.0 hr,0.36 and 0.51 and 0.22
same,Brain Tissue Cone.,[1]; 1.0 hr,161 ng/g and 101 ng/g and 226 ng/g
same,Plasma Conc.,[1]; 1.0 hr,453 ng/mL and 199 ng/mL and 1020 ng/mL
same,Average (B/P Ratio),[1]; 1.0 hr,0.361
same,Brain/Plasma ratio,"[1]; 3 hours, rat, oral 3 mg/kg",0.220±0.033
same,B/P Ratio,[1]; 3.0 hr,0.26 and 0.21 and 0.19
same,Brain Tissue Cone.,[1]; 3.0 hr,234 ng/g and 269 ng/g and 274 ng/g
same,Plasma Conc.,[1]; 3.0 hr,1270 ng/mL and 1430 ng/mL
same,Average (B/P Ratio),[1]; 3.0 hr,0.220
same,Brain/Plasma ratio,"[1]; 5 hours, rat, oral 3 mg/kg",0.171±0.011
same,B/P Ratio,[1]; 5.0 hr,0.17 and 0.18 and 0.16
same,Brain Tissue Cone.,[1]; 5.0 hr,208 ng/g and 247 ng/g and 333 ng/g
same,Plasma Conc.,[1]; 5.0 hr,1260 ng/mL and 1340 ng/mL and 2040 ng/mL
same,Average (B/P Ratio),[1]; 5.0 hr,0.171
same,Brain/Plasma ratio,"[1]; 7 hours, rat, oral 3 mg/kg",0.328±0.154
same,B/P Ratio,[1]; 7.0 hr,0.16 and 0.35 and 0.47
same,Brain Tissue Cone.,[1]; 7.0 hr,203 ng/g and 216 ng/g
same,Plasma Conc.,[1]; 7.0 hr,1240 ng/mL and 368 ng/mL and 462 ng/mL
same,Average (B/P Ratio),[1]; 7.0 hr,0.328
same,Brain/Plasma ratio,"[1]; 12 hours, rat, oral 3 mg/kg",0.350±0.077
same,B/P Ratio,[1]; 12.0 hr,0.30 and 0.44 and 0.31
same,Brain Tissue Cone.,[1]; 12.0 hr,104 ng/g and 114 ng/g and 117 ng/g
same,Plasma Conc.,[1]; 12.0 hr,345 ng/mL and 259 ng/mL and 377 ng/mL
same,Average (B/P Ratio),[1]; 12.0 hr,0.350
same,average plasma half-life,"[1]; rat, oral 3 mg/kg",3.33 h
same,plasma Cmax,"[1]; rat, oral 3 mg/kg",1547 ± 248 ng/mL
same,plasma exposure AUClast,"[1]; rat, oral 3 mg/kg",9569 ± 1190 ng·h/mL
